Results taken from ChEMBL document CHEMBL1128002, “Selective inhibitors of protein kinase C in a model of graft-vs-host disease” (Bioorg Med Chem Lett, 1994).

Experiments:
[1] = (§1) Inhibitory activity against protein kinase C from Jurkat cells.; assay type: cell-based; parameters: concentration or dose not given beside the values; details: dose or concentration not given here
[2] = as §1; assay type: cell-based
Rattus norvegicus [3] = species: Rattus norvegicus; experiment: (§2) Inhibitory activity against graft vs host disease in rat.; assay type: functional, organism-based
Rattus norvegicus [4] = species: Rattus norvegicus; experiment: as §2; assay type: functional

Row | IC50 [2] | IC50 (Rattus norvegicus [3]) | Compound | inhibition [1] | Inhibition (Rattus norvegicus [4])
1 | 3.5 µM | 4.2 µM | O=C1ON=C(c2cccs2)/C1=C/c1ccc(O)cc1 | 93% | 87%
2 | 9.9 µM |  | O=C1ON=C(c2cccs2)/C1=C/c1cccc(O)c1 |  | 58%
3 | 5.5 µM | 5.7 µM | O=C1ON=C(c2cccs2)/C1=C/c1ccccc1O |  | 87%
4 | 2.9 µM | 3 µM | O=C1ON=C(c2cccs2)/C1=C/c1ccsc1 | 100% | 95%
5 | 35 µM |  | CC(C)(C)c1cc(/C=C2\C(=O)ON=C2c2cccs2)cc(C(C)(C)C)c1O |  | 
6 | 23 µM |  | O=C1ON=C(c2cccs2)/C1=C/c1cccc(Cl)c1 | 24% | 
7 | 5.3 µM | 1.6 µM | Cc1cc(O)cc(C)c1/C=C1\C(=O)ON=C1c1cccs1 | 78% | 88%
8 | 3.5 µM | 3.4 µM | O=C1ON=C(c2cccs2)/C1=C/c1ccc(O)c(O)c1 |  | 87%
9 | 11 µM |  | COc1cc(/C=C2\C(=O)ON=C2c2cccs2)cc(OC)c1O |  | 72%
10 | 2.5 µM | 2.6 µM | Cc1cc(/C=C2\C(=O)ON=C2c2cccs2)cc(C)c1O |  | 
11 | 22 µM |  | COc1cccc(/C=C2\C(=O)ON=C2c2cccs2)c1 | 65% | 66%
12 | 1.7 µM | 3.6 µM | O=C1ON=C(c2cccs2)/C1=C/c1ccoc1 | 100% | 94%
13 | > 100 µM |  | COc1ccc(/C=C2\C(=O)ON=C2c2cccs2)c(OC)c1 | 35% | 
14 | 1.4 µM | 5.8 µM | O=C1ON=C(c2cccs2)/C1=C/c1ccco1 | 100% | 88%

Continued, compound first:

Row | Compound | IC50 [2] | IC50 (Rattus norvegicus [3]) | inhibition [1] | Inhibition (Rattus norvegicus [4])
15 | Oc1onc(-c2cccs2)c1/C=C1/C=Nc2ccccc21 |  |  | 48% | 
16 | O=C1ON=C(c2ccccc2)/C1=C/c1ccco1 | 0.9 µM | 2.9 µM | 84% | 89%
17 | O=C(O)COc1ccc(/C=C2\C(=O)ON=C2c2cccs2)cc1 | 8.2 µM | 100 µM |  | -7%
18 | O=C1ON=C(c2cccs2)/C1=C/c1ccc(Br)cc1 | 84 µM |  | 100% | 91%
19 | O=C1ON=C(c2ccccc2)/C1=C/c1ccccc1 | 14 µM |  |  | 
20 | O=C1ON=C(c2ccc([N+](=O)[O-])cc2)/C1=C/c1cccs1 |  |  | 0% | 
21 | COc1cc(/C=C2\C(=O)ON=C2c2cccs2)ccc1OC(C)=O | 11 µM |  | 82% | 43%
22 | Cn1cc(/C=C2\C(=O)ON=C2c2cccs2)c2ccccc21 |  |  | 21% | 
23 | CN(C)c1ccc(/C=C2\C(=O)ON=C2c2cccs2)cc1 | 2.1 µM | 4.2 µM | 88% | 89%
24 | COc1ccc(OC)c(C2=NOC(=O)/C2=C\c2cccs2)c1 | 1.9 µM | 7.9 µM | 100% | 59%
25 | O=C1ON=C(c2cccs2)/C1=C/c1ccc(Cl)cc1 | 11 µM | 6.2 µM | 82% | 71%
26 | COc1ccccc1C1=NOC(=O)/C1=C\c1cccs1 | 1.2 µM | 7.1 µM | 100% | 66%
27 | COc1ccc(C2=NOC(=O)/C2=C\c2cccs2)cc1 | 0.7 µM | 11 µM | 100% | 44%
28 | COc1ccc(/C=C2\C(=O)ON=C2c2cccs2)cc1 | 1.2 µM | 2.5 µM | 89% | 96%
29 | O=C1ON=C(c2cccs2)/C1=C/c1cccs1 | 1 µM | 3.7 µM | 100% | 97%
30 | Oc1onc(-c2cccs2)c1/C=C1\C=CC=N1 |  |  | 8.9% | 
31 | CC1=CC(C)=N/C1=C/c1c(-c2cccs2)noc1O |  |  | 19% | 
32 | Nc1ccc(C2=NOC(=O)/C2=C\c2cccs2)cc1 |  |  | 0% | 
33 | CC(=O)Oc1ccc(/C=C2\C(=O)ON=C2c2cccs2)cc1 | 11 µM | 4.5 µM | 81% | 65%
34 | O=C1ON=C(c2cccs2)C1=CC=Cc1ccccc1 | 1 µM | 3 µM |  | 93%
35 | O=C1ON=C(c2cccs2)/C1=C/c1ccccc1 | 15 µM | 4.4 µM | 81% | 88%
36 | O=C1ON=C(c2ccccc2O)/C1=C/c1cccs1 | 25 µM |  |  | 20%
37 | O=C1ON=C(c2cccs2)/C1=C/c1ccc(F)cc1 | 8.8 µM | 4.8 µM | 98% | 92%
